BindingDB's records for doi:10.1016/0960-894X(95)00417-R (1995)

How the values were obtained:
[1] = Tested in vitro for receptor binding affinity to 5-hydroxytryptamine 1D receptor in bovine caudate using [3H]5-HT radioligand
[2] = Compound was tested for the inhibition of forskolin-stimulated adenylate cyclase at 5-hydroxytryptamine 1A receptor in guinea pig

Row | Compound | IC50 [1] | EC50 [2]
1 | CN(C)CCc1c[nH]c2ccc(-n3cnc4cccnc43)cc12 [[2-(5-Imidazo[4,5-b]pyridin-3-yl-1H-indol-3-yl)-ethyl]-dimethyl-amine] | 0.011 µM | 0.46 µM
2 | CN1CCC[C@@H]1Cc1c[nH]c2ccc(-n3cnc4cc(C#N)ccc43)cc12 [CP-161242] | 0.0013 µM | 0.026 µM
